# Where two headings read alike, the source gives them in different places.
# Experiment: Phase 1 Stage 1 clinical pharmacokinetics of SC ZA co-administered with rHuPH20
# Format: in vivo, human
# Conditions: human, serum, sc; for AUC(0-t): AUC (0-48 h); for AUC(0-t) / Cmax / AUC(0-inf) / Tmax: ZA […] SC; for AUC(0-inf): read-out: AUC (0-inf); for Tmax: read-out: Tmax; for concentration at 0 h: 0 h post infusion; for concentration at 10 min: 10 min post infusion; for concentration at 0.5 h: 0.5 h post infusion; for concentration at 1 h: 1 h post infusion; for concentration at 2 h: 2 h post infusion; for concentration at 4 h: 4 h post infusion; for concentration at 6 h: 6 h post infusion; for concentration at 8 h: 8 h post infusion
# Experimental: A pharmacokinetic study of zoledronic acid (ZA) co-administered with rHuPH20 in human subjects was conducted. The primary objective of the study was to determine the bioavailability of zoledronic acid dosed via subcutaneous (SC) co-administration with human recombinant hyaluronidase PH20 (rHuPH20). […] The patients were administered the prescribed dosage formulations as follows: Cohorts 1-5 were administered a single subcutaneous infusion in a dosage volume of 100 ml at a rate of 3 mL/min. […] The dosing solution is administered via needle or catheter into the SC space of the left anterior thigh (midway between the anterior iliac crest and the cephalad border of the patella). For cohorts 1-5, the dosing solutions were administered by a controlled rate infusion pump at approximately 3 mL/minute. […] The dosing solutions were administered by syringe push bolus injection. […] Serum concentration of ZA was determined using a qualified LC-MS-MS assay after derivatization with diazomethane (Zhu, L S et al. (2006) Rapid Commun. […] The assay range was from 2.0 to 400 ng/mL with a lower limit of quantitation (LLOQ) at 2.0 ng/mL. […] Non-compartmental analysis was used for derivation of primary and secondary pharmacokinetic (PK) parameters. […] Summary statistics (mean, standard deviation, and median) were calculated using JMP or Microsoft Excel.
# [1] = Subj 21, inf 0.556 hr, PH20 24000 U
# [2] = Subj 25, inf 0.549 hr, PH20 23736 U
# [3] = Subj 31, inf 0.554 hr, PH20 23952 U
# [4] = Subj 32, inf 0.556 hr, PH20 24000 U
# [5] = Subj 51, inf 0.251 hr, PH20 6024 U
# [6] = Subj 1, inf 0.554 hr, PH20 23928 U
# [7] = Subj 8, inf 0.531 hr, PH20 22944 U
# [8] = Subj 11, inf 0.554 hr, PH20 23928 U
# [9] = Subj 16, inf 0.553 hr, PH20 23904 U
# [10] = ZA 0.25 mg SC infusion + 24000 Units rHuPH20, individual subjects, read-out: Zoledronic Acid Concentration
# [11] = ZA 0.25 mg SC infusion + 24000 Units rHuPH20, n=3, read-out: Mean Conc.
# [12] = ZA 0.25 mg SC infusion + 24000 Units rHuPH20, n=3, read-out: Median Conc.
# [13] = ZA 0.5 mg SC infusion + 24000 Units rHuPH20, individual subjects, read-out: Zoledronic Acid Concentration
# [14] = ZA 0.5 mg SC infusion + 24000 Units rHuPH20, n=3, read-out: Mean Conc.
# [15] = ZA 0.5 mg SC infusion + 24000 Units rHuPH20, n=3, read-out: Median Conc.
structure (smiles),measurement,setting,value
"O=P(O)(O)C(O)(Cn1ccnc1)P(=O)(O)O [ZA, 1-hydroxy-2-(1H-imidazol-1-yl)ethylidene-1,1-bisphosphonic acid]",AUC(0-t),"Subj 18, inf […], PH20 23304 U",69.8 ng·h/mL
same,AUC(0-t),[1],66.1 ng·h/mL
same,AUC(0-t),[2],115 ng·h/mL
same,AUC(0-t),"Subj 26, inf […], PH20 23088 U",150 ng·h/mL
same,AUC(0-t),[3],234 ng·h/mL
same,AUC(0-t),[4],277 ng·h/mL
same,AUC(0-t),[5],471 ng·h/mL
same,AUC(0-t),"Subj 77, inf […], PH20 6000 U",618 ng·h/mL
same,Cmax,[6],7.75 ng/mL
same,AUC(0-inf),[6],29.9 ng·h/mL
same,Tmax,[6],1.02 h
same,Cmax,[7],5.67 ng/mL
same,AUC(0-inf),[7],32.6 ng·h/mL
same,Tmax,[7],1.41 h
same,Cmax,[8],6.84 ng/mL
same,AUC(0-inf),[8],30.8 ng·h/mL
same,Tmax,[8],1.25 h
same,Cmax,[9],15.3 ng/mL
same,AUC(0-inf),[9],62.5 ng·h/mL
same,Tmax,[9],0.8 h
same,Cmax,"Subj 18, inf […], PH20 23304 U",17.1 ng/mL
same,AUC(0-inf),"Subj 18, inf […], PH20 23304 U",68.1 ng·h/mL
same,Tmax,"Subj 18, inf […], PH20 23304 U",1.29 h
same,Cmax,[1],14.2 ng/mL
same,AUC(0-inf),[1],64.3 ng·h/mL
same,Tmax,[1],1.31 h
same,Cmax,[2],30.1 ng/mL
same,AUC(0-inf),[2],117 ng·h/mL
same,Tmax,[2],1.3 h
same,Cmax,"Subj 26, inf […], PH20 23088 U",33.4 ng/mL
same,AUC(0-inf),"Subj 26, inf […], PH20 23088 U",153 ng·h/mL
same,Tmax,"Subj 26, inf […], PH20 23088 U",1.03 h
same,Cmax,[3],53 ng/mL
same,AUC(0-inf),[3],239 ng·h/mL
same,Tmax,[3],1.54 h
same,Cmax,[4],58.7 ng/mL
same,AUC(0-inf),[4],295 ng·h/mL
same,Tmax,[4],1.56 h
same,Cmax,[5],95.4 ng/mL
same,AUC(0-inf),[5],508 ng·h/mL
same,Tmax,[5],0.52 h
same,Cmax,"Subj 77, inf […], PH20 6000 U",147 ng/mL
same,AUC(0-inf),"Subj 77, inf […], PH20 6000 U",678 ng·h/mL
same,Tmax,"Subj 77, inf […], PH20 6000 U",0.75 h
same,concentration at 0 h,[10],4.5 ng/mL
same,concentration at 0 h,[11],4.74 ng/mL
same,concentration at 0 h,[12],4.69 ng/mL
same,concentration at 10 min,[10],7.43 ng/mL
same,concentration at 10 min,[11],5.76 ng/mL
same,concentration at 10 min,[12],4.97 ng/mL
same,concentration at 0.5 h,[10],7.75 ng/mL
same,concentration at 0.5 h,[11],6.39 ng/mL
same,concentration at 0.5 h,[12],6.25 ng/mL
same,concentration at 1 h,[10],7.25 ng/mL
same,concentration at 1 h,[11],6.51 ng/mL
same,concentration at 1 h,[12],6.6 ng/mL
same,concentration at 2 h,[10],5.42 ng/mL
same,concentration at 2 h,[11],5.06 ng/mL
same,concentration at 2 h,[12],5.42 ng/mL
same,concentration at 4 h,[10],2.56 ng/mL
same,concentration at 4 h,[11],3.02 ng/mL
same,concentration at 4 h,[12],3.06 ng/mL
same,concentration at 6 h,[10],1.2 ng/mL
same,concentration at 6 h,[11],1.52 ng/mL
same,concentration at 6 h,[12],1.35 ng/mL
same,concentration at 8 h,[10],0.56 ng/mL
same,concentration at 8 h,[11],0.82 ng/mL
same,concentration at 8 h,[12],0.79 ng/mL
same,concentration at 0 h,[13],10.8 ng/mL
same,concentration at 0 h,[14],11.8 ng/mL
same,concentration at 0 h,[15],11.1 ng/mL
same,concentration at 10 min,[13],15 ng/mL
same,concentration at 10 min,[14],15 ng/mL
same,concentration at 10 min,[15],15 ng/mL
same,concentration at 0.5 h,[13],13.8 ng/mL
same,concentration at 0.5 h,[14],14.4 ng/mL
same,concentration at 0.5 h,[15],13.8 ng/mL
same,concentration at 1 h,[13],14.1 ng/mL
same,concentration at 1 h,[14],14.3 ng/mL
same,concentration at 1 h,[15],14.1 ng/mL
same,concentration at 2 h,[13],11.1 ng/mL
same,concentration at 2 h,[14],11.1 ng/mL
same,concentration at 2 h,[15],11.1 ng/mL
same,concentration at 4 h,[13],5.27 ng/mL
same,concentration at 4 h,[14],5.72 ng/mL
same,concentration at 4 h,[15],5.87 ng/mL
same,concentration at 6 h,[13],2.5 ng/mL
same,concentration at 6 h,[14],2.69 ng/mL
